The text below walks through data of patent US6057314A, “Low molecular weight bicyclic thrombin inhibitors” (Biochem Pharma Inc., priority 1997, dated 2000).

pIC50, pKi: −log10 of the molar value. Read-outs that look alike come from different tables or passages of the source. Where only a bound is given, the exact number is not on record here.

Assay [1] concerns the target T1, human thrombin (Homo sapiens, UniProt P00734). Kind of assay: Fibrin clot assay (human plasma, turbidity). It is filed as biochemical. Particulars: Table 1, 1 nM thrombin, at 30 minutes. The protocol: The fibrin clot assay was performed essentially as described by Krtenansky et al, FEBS, 1987, 211:10. A serial dilution of the inhibitor was prepared in 50 mM tri HCl buffer (pH 7.8 at 23° C.) containing 0.1 M NaCl and 0.1% (w/v) polyethylene glycol 8000. Human plasma (60 μL, collected in 3.8% sodium citrate, blood/anticoagulate 9:1) was added to microtiter wells (microtiter plate, Falcon) containing 100 μL of various inhibitor dilutions. The solution was mixed after which 50 μL of human thrombin (1 nM final conc.) was added and mixed for 15 seconds. The turbidity of the clot was immediately monitored by microplate autoreader (Dynateck MR 5000) at 405 nm and recorded every 3 min. The maximal turbidity in the absence of inhibitors was reached within 60 min. IC50 values were calculated at 30 minutes as the inhibitor concentration that gave half the optical density of the control.

The target in assay [2] is T1, human thrombin. Description: dTT assay (fibrin clotting assay, human thrombin and bovine fibrinogen). The settings on record: concentration required to double the clotting time. Format: biochemical. The source says: The clotting time was plotted against the inhibitor concentrations and the IC50 was estimated as the inhibitor concentration required to double the clotting time relative to the control.

The target in assay [3] is T1, human thrombin. Kind of assay: Inhibition of amidolytic activity of human thrombin (Ki, fluorogenic substrate Tos-Gly-Pro-Arg-AMC). Format: biochemical. The procedure: In an assay to determine the inhibitory dissociation constant, Ki, for a given compound, a chromogenic or fluorogenic substrate of thrombin would be added to a solution containing a test compound and thrombin; the resulting catalytic activity of the enzyme would be spectrophotometrically determined. This type of assay is well known to those skilled in the art.
Determination of K1 Values for Heterocyclics
The steady-state velocity was then measured for a few minutes. The compounds of this invention were also pre-incubated with thrombin for 20 minutes at room temperature before adding the substrate.

Assay [4] has as its system washed platelets from rats. Kind of assay: Platelet aggregation (washed rat platelets, thrombin stimulated). The settings on record: Table 1, suspension of washed platelets from rats, human thrombin 0.1 IU/mL, read-out: Antiplatelet activity, Aggregation (IC50). It is filed as cell-based. The protocol:
(§1) Platelet Aggregation and Secretion Rat blood was collected into ACD (6/1 v/v) by cardiac puncture. Suspensions of washed platelets were prepared as described by […] et al, (Br. J. Haematol. 1970, 19:7 and Proc. Soc. Exp. Biol. Med. 1971, 136:1021). […] Platelet counts were adjusted to 5000,000/ μL. Platelet aggregation was recorded at 37° C. in an aggregometer (BioData PAP-4) at a stirring speed of 1,100 rpm by measuring the variations of light transmission. […] IC50 values represent the concentration that was necessary to inhibit platelet aggregation or secretion to 50% of the control.

Assay [5] deals with washed platelets from rats. Description: Platelet secretion (14C-serotonin, 5-HT, release from washed rat platelets, thrombin stimulated). It is filed as cell-based. The settings on record: Table 1, human thrombin 0.1 IU/mL, read-out: Antiplatelet activity, 5-HT Secretion (IC50). The protocol: as §1, with “μL. To permit measurement of the extent of release of the contents of the dense granules, the platelets were labelled in the first washing solution with ^14 C-serotonin (5-HT) (1 μCi/10 mL of washing fluid) and release of ^14 C-serotonin was determined as described in Holmsen et al, (Enzymology, 1989, 169:206). […] (5 μM final conc.) was added to present the reuptake of released serotonin.” for “μL.”

The next assay has as its system carotid artery in rats. Description: FeCl3 induced carotid arterial injury model (arterial thrombosis) in rats, time to occlusion. It is filed as in vivo, rat (Sprague-Dawley). Particulars: Table 2. The protocol:
Arterial Thrombosis Model
FeCl3 Induced Carotid Arterial Injury Model
Animals were laid on a 37° C. heating pad. The carotid artery was exposed through a midline cervical incision. Careful blunt dissection was used to isolate the vessel from the carotid sheath. […] A temperature probe (Physitemp*MT23/3) was placed between one of the pieces of tubing and the artery. Injury was induced by topical application on the carotid artery above the temperature probe of a small disc (3 mm dia.) of Whatman* No. 1 filter paper previously dipped in a 35% solution of FeCl3 […]. The vessel temperature was monitored for 60 minutes after application of FeCl3 as an indication of blood flow.
The time between the FeCl3 application and the time at which the vessel temperature decreased abruptly (>2.4° C.) was recorded as the time to occlusion of the vessel. Inhibitor compounds were given as an iv bolus (mg/kg) followed immediately by an iv infusion (μg/kg/min. via femoral vein). The dose of inhibitor needed to double the time to occlusion in comparison to control animals in which injury was induced in the absence of inhibitor was determined.

Where [6] appears, read: Table 1, read-out: Ki (inhibitory dissociation constant for human thrombin).

What is called pKi is −log10 of the Ki, conventionally taken in molar units. Turning to `CCCC(=O)C(CCCNC(=N)N)NC(=O)[C@@H]1CSC2CC[C@@H](Cc3ccccc3)C(=O)N21` (stereo partly drawn) [Compound 0005, 6S-benzylhexahydro-5-oxo-5H-thiazolo[3,2-a]pyridine-3R-carboxamido (propyl ketoarginine)], the pIC50 at human thrombin [1] was less than 3.35; on human thrombin [2] (Table 1, read-out: dTT IC50) it was 4.33. Further, at human thrombin [3] (setting [6]), the negative logarithm of the Ki (pKi) was 5.40.
As for `CCCCC(=O)C(CCCNC(=N)N)NC(=O)[C@@H]1CSC2CC[C@@H](Cc3ccccc3)C(=O)N21` (stereo partly drawn) [Compound 0010, 6S-benzylhexahydro-5-oxo-5H-thiazolo[3,2-a]pyridine-3R-carboxamido (butyl ketoarginine)], the pIC50 in assay [4] was 4.68; in assay [5] it was 4.72; on human thrombin [1] it was less than 3.35; at human thrombin [2] (Table 1, read-out: dTT IC50) it was 4.05. At human thrombin [3] (setting [6]), the pKi is 5.34.
The matching figures for `COC(=O)CCC(=O)C(CCCNC(=N)N)NC(=O)[C@@H]1CSC2CC[C@@H](Cc3ccccc3)C(=O)N21` (stereo partly drawn) [Compound 0015, 6S-benzylhexahydro-5-oxo-5H-thiazolo[3,2-a]pyridine-3R-carboxamido(propylcarbmethoxyketoarginine)]: less than 4.00, less than 4.00, less than 3.35, 3.79 and 4.80.
As to `N=C(N)NCCCC(NC(=O)[C@@H]1CSC2CC[C@@H](CC3CCCCC3)C(=O)N21)C(=O)Cc1ccccc1` (stereo partly drawn) [Compound 0020, 6S-cyclohexymethyl hexahydro-5-oxo-5H-thiazolo[3,2-a]pyridine-3R-carboxamido(benzylketoarginine)], the pIC50 in assay [4] is 4.74; in assay [5], 4.85; at human thrombin [1], less than 3.35; on human thrombin [2] (Table 1, read-out: dTT IC50) it was 4.66. Moreover, at human thrombin [3] (setting [6]), the negative-log Ki (pKi) was 5.66.
The matching figures for `COC(=O)CCC1(C(CCCNC(=N)N)NC(=O)[C@@H]2CSC3CC[C@@H](CC4CCCCC4)C(=O)N32)SCCS1` (stereo partly drawn) [Compound 0025, 6S-cyclohexyl methyl hexahydro-5-oxo-5H-thiazolo[3,2-a]pyridine-3R-carboxamido(carbmethoxypropylcyclodithioketalarginine)]: less than 4.00, less than 4.00, less than 3.35, less than 3.20 and 4.28.
Taken in the same sequence, the figures for `N=C(N)NCCC[C@H](NC(=O)[C@@H]1CSC2CC[C@@H](CC3CCCCC3)C(=O)N21)C(=O)N1CCCC[C@@H]1C(=O)O` (stereo partly drawn) [Compound 0030, 6S-cyclohexylmethyl hexahydro-5-oxo-5H-thiazolo[3,2-a]pyridine-3R-carboxamido((S)-Arg-(R)-pipecolilic acid)] were less than 4.00, less than 4.00, 3.49, 4.17 and 5.07.
For `N=C(N)NCCCC(NC(=O)[C@@H]1CSC2CC[C@@H](Cc3ccccc3)C(=O)N21)C1(CCC(N)=O)SCCS1` (stereo partly drawn) [Compound 0035, 6S-benzylhexahydro-5-oxo-5H-thiazolo[3,2-a]pyridine-3R-carboxamido(carboxamidopropylcyclodithioketalarginine)], the pIC50 in assay [4] is less than 4.00; in assay [5], less than 4.00; on human thrombin [1] it was less than 3.35; on human thrombin [2] (Table 1, read-out: dTT IC50), 3.50. The pKi at human thrombin [3] (setting [6]) was 4.47.
Turning to `N=C(N)NCCC[C@H](NC(=O)[C@@H]1CSC2CC[C@@H](CC3CCCCC3)C(=O)N21)C(=O)N1CCCC(C(N)=O)C1` (stereo partly drawn) [Compound 0040, 6S-cyclohexylmethylhexahydro-5-oxo-5H-thiazolo[3,2-a]pyridine-3R-carboxamido((S)-Argnipecotamide)], the pIC50 in assay [4] was less than 4.00; in assay [5] it was less than 4.00; on human thrombin [1], less than 3.35; at human thrombin [2] (Table 1, read-out: dTT IC50) it was 3.68. At human thrombin [3] (setting [6]), the pKi was 4.72.
Turning to `N=C(N)NCCC[C@H](NC(=O)[C@@H]1CSC2CC[C@@H](CC3CCCCC3)C(=O)N21)C(=O)N1CCC(C(N)=O)CC1` (stereo partly drawn) [Compound 0045, 6S-cyclohexylmethylhexahydro-5-oxo-5H-thiazolo[3,2-a]pyridine-3R-carboxamido((S)Argisonipecotamide)], the pIC50 on human thrombin [1] is less than 3.35; on human thrombin [2] (Table 1, read-out: dTT IC50) it was 3.38. At human thrombin [3] (setting [6]), the pKi was 4.13.
As for `N=C(N)NCCCC(NC(=O)[C@@H]1CSC2CC[C@@H](Cc3ccccc3)C(=O)N21)C1(CCCCC(N)=O)SCCS1` (stereo partly drawn) [Compound 0050, 6S-benzylhexahydro-5-oxo-5H-thiazolo[3,2-a]pyridine-3R-carboxamido(carboxamidopentylcyclodithioketalarginine)], the pIC50 against human thrombin [1] was less than 3.35. In addition, the pKi at human thrombin [3] (setting [6]) was 4.21.
Take `N=C(N)NCCCC(NC(=O)[C@@H]1CSC2CC[C@@H](CC3CCCCC3)C(=O)N21)C(=O)CSCC(=O)O` (stereo partly drawn) [Compound 0065, 6S-cyclohexylmethylhexahydro-5-oxo-5H-thiazolo[3,2-a]pyridine-3R-carboxamido(1-carboxy-3-thiobutylketoarginine)]: the pIC50 is 4.32 in assay [4]; 4.28 in assay [5]; 3.70 on human thrombin [1]; 4.38 on human thrombin [2] (Table 1, read-out: dTT IC50). Moreover, the pKi at human thrombin [3] (setting [6]) is 4.49.
On to `N=C(N)NCCCC(NC(=O)[C@@H]1CSC2CC[C@@H](CC3CCCCC3)C(=O)N21)C(=O)C[n+]1ccc2ccccc2c1` (stereo partly drawn) [Compound 0080, 6S-cyclohexylmethylhexahydro-5-oxo-5H-thiazolo[3,2-a]pyridine-3R-carboxamido(iso-quinoliniummethylketoarginine)], for which the pIC50 is 6.40 in assay [4]; 6.42 in assay [5]; 6.43 at human thrombin [2] (Table 1, read-out: dTT IC50). Further, at human thrombin [3] (setting [6]), the pKi is 7.32.
For `COC(=O)CCC(=O)C(CCCNC(=N)N)NC(=O)[C@@H]1CSC2CC[C@@H](Cc3ccccc3)C(=O)N21` (stereo partly drawn) [Compound 0100, 6S-benzylhexahydro-5-oxo-5H-thiazolo[3,2-a]pyridine-3R-carboxamido(propylcarbmethoxyketoarginine)], on human thrombin [2] (Table 1, read-out: dTT IC50), the pIC50 is 3.78. In addition, on human thrombin [3] (setting [6]), the negative logarithm of the Ki (pKi) is 4.72.
As to `N=C(N)NCCCC(NC(=O)[C@@H]1CC[C@H]2CN(C(=O)c3ccccc3)CC(=O)N21)C(=O)c1nccs1` (stereo partly shown) [Compound 0335, 2-Benzoyl-4-oxo-octahydro-pyrrolo[1,2-a]pyrazine-6-carboxylic acid[4-guanidino-1-(thiazole-2-carbonyl)-butyl]-amide], the “M.O.T (min)+/-sem” value with carotid artery in rats (ivb + inf 0.5-30 (iv bolus mg/kg, infusion μg/kg/min)) stood at 41.5 ± 7.27 min; in the assay on carotid artery in rats (ivb + inf 0.75-50 (iv bolus mg/kg, infusion μg/kg/min)), 45.8 ± 14.2 min. Besides, the pIC50 at human thrombin [2] (Table 2, read-out: dTT) is 6.86. The negative logarithm of the Ki (pKi) on human thrombin [3] (Table 2, read-out: Ki) was 7.60.
